This is an account of results in a melting point compilation (Tetko et al.; mined from patent text by program, amines drawn as free bases though some values may be those of a salt).

`COc1cc(N)c(Cl)cc1C(=O)NCC1CCN(CCCS(=O)(=O)Cc2ccc(Cl)cc2)CC1` yielded a melting point of 175 to 177 °C. In the case of `CCOCCOc1ccc(-c2ccc3c(c2)C=C(C(=O)Nc2ccc(CN(C)C4CCOCC4)cc2)CCS3(=O)=O)cc1` it was 215 to 217 °C.

Turning to `CC(C)Cn1c(=O)n(C)c(=O)c2cc(Cn3cnc4ccccc43)sc21`, the melting point lay within 198 to 199 °C. In the case of `O=C(Nc1cc(-c2c(-c3ccc(Cl)cc3)nc3cccnn23)ccn1)c1ccccc1`, the melting point was in the range of 218 to 219 °C. Under `O=C(Nc1cc(C(F)(F)F)cc2ncn(-c3ccccc3)c12)c1ccccc1` stands 152 to 155 °C; under `Cc1c(CCOCCO[N+](=O)[O-])cc(-c2ccc(S(C)(=O)=O)cc2)n1-c1ccccc1`, 78 to 80 °C; under `CCCc1nc2c(N)nc3ccccc3c2n1CCC(=O)NC`, 177 to 178 °C. `CCOC1CN(Cc2cc(OC)c(OC)c(OC)c2)Cc2cc(OC)c(OCc3ccccc3)cc21` (stereo not given) came in with a melting point of 132 to 133 °C. Under `Cc1csc2c(=O)n(N=Cc3ccc(Cl)cc3)cnc12` stands 213 to 215 °C; under `COc1ccccc1CC(=O)N1C[C@@H]2[C@H](F)CCC(c3ccccc3)(c3ccccc3)[C@@H]2C1`, 205 °C. Compound `O=c1oc2cc(O)c(O)cc2c(O)c1C1=CCOc2oc3ccccc3c(=O)c21` showed a melting point of 258 to 260 °C. Under `O=C1COc2cccc3nc4c(c(c23)N1)CCCC4` stands 201 to 202 °C.

As for `Cc1nc2c(N)cc(C(=O)N(C)C)cc2n1C`, the melting point lay within 230 to 234 °C.

`COC(=O)c1ccc(Cn2nc(OCc3ccccc3)c3ccc(NC(=O)CC4CCCC4)cc32)c(OC)c1` came in with a melting point of 139 to 140 °C.

For the compound `COc1nc2cc(C(c3ccccc3)n3ccnc3)ccc2[nH]1` (stereo not given), the melting point is 110 °C. As to `Cc1ccc(CC2CCN(C(=O)c3nc4ccc(O)cc4[nH]3)CC2)cc1`, the melting point came out at 93 °C. In the case of `CC(C)(C)OC(=O)NNCc1ccc(Cl)cc1` it was 77 to 82 °C; in that of `O=[N+]([O-])c1cc(Cl)cc(O)c1O`, 108 to 111 °C. Under `O=C1NN=C(c2ccc3c(c2)C2(CCCS2)C(=O)N3)CS1` (stereo not given) stands 284 °C; under `CCOC(=O)c1ccc(-c2cccc(OCc3ccc(COC(=O)c4ccccc4)c(COC(=O)c4ccccc4)c3)c2)nc1`, 118 to 120 °C.

For `Cc1cccc(NC(=O)NC2N=C(c3ccccc3)c3ccccc3N(Cc3nccc4ccccc34)C2=O)c1` (racemic), the melting point was 218 to 221 °C. Under `Cn1cnc2c([N+](=O)[O-])cc(Br)cc21` stands 198 °C.

Consider `CC(C)C(NC(=O)c1ccncc1)C(=O)NC(Cc1ccccc1)C(O)C(Cc1ccccc1)NC(=O)C(NC(=O)c1ccncc1)C(C)C` (stereo not given), for which the melting point lay in the range of 256 to 258 °C. Under `C[C@@H]1CCC[C@H](C)N1CCNc1ccnc2cc(Cl)ccc12` stands 138 to 139 °C; under `CC(C)(C)OC(=O)N1C(=O)O[C@@H](c2ccc(F)cc2)[C@H]1Cc1ccc(C(F)(F)F)cc1` (racemic), 155 to 156 °C. `CN(CCOc1ccccc1)[C@H]1CC[C@H](c2ccc(O)cc2)CC1` came in with a melting point of 90 to 92 °C.

For the compound `CC1CCCN1CCCOc1ccc(-c2ccc(S(=O)Cc3ccccc3)nn2)cc1` (stereo not given), the melting point is 145 °C. `CC(C)n1cc(C(=O)O)c(=O)c2cc(F)c(F)c(F)c21` showed a melting point of 256 to 260 °C. Under `CCOC(=O)c1nc2sc3c(c2c(=O)[nH]1)CCCC3` stands 207 to 209 °C; under `COc1ccc(C2=NN(Cc3ccc([N+](=O)[O-])cc3)C(=O)SC2)cc1OC`, 155 °C. Compound `ClCc1ncc(-c2ccccc2)cc1Cl` gave a melting point of 74 to 75 °C. Under `C[C@H](Cn1ncnn1)n1cnc2cc3c(=O)n(Cc4c[nH]nn4)nnc3cc2c1=O` stands 180 to 182 °C; under `CSc1nnc(-c2ccc3ccccc3c2)n1C`, 177 to 179 °C. Under `O=C(O)c1ccc(SC(C(=O)O)c2cccc(C(F)(F)F)c2)cn1` (stereo not given) stands 190 to 195 °C. In the case of `CC(Cc1c[nH]c2ccccc12)(NC(=O)OC1C2CC3CC(C2)CC1C3)C(=O)NC(CC(=O)O)Cc1ccc(N)cc1` (stereo not given) it was 115 to 120 °C. The compound `O=C(O)c1c(-c2cccc([N+](=O)[O-])c2)oc2ncnc(O)c12` showed a melting point above 300 °C. In the case of `COc1ccc(N2CCOCC2)c2sc(NC(=O)N(C)C3CCC(F)(F)CC3)nc12` it was 189 to 192 °C; in that of `COc1ccc(N2C(=O)C(C)(C)N(c3ccc(Oc4ccccc4)cc3)C2=S)cc1`, 144 °C. Under `CC(=O)NC[C@H]1CN(c2ccc3c(c2)CCS(=O)(=O)CC3)C(=O)O1` stands 142 to 144 °C; under `Cc1cc(C)c(S(=O)(=O)Oc2nc(Nc3ccc(F)cc3F)c(C(=O)n3ccnc3)cc2F)c(C)c1`, 98 to 101 °C. Turning to `CCC1C=C(CCN(O)C(N)=O)c2ccccc21` (stereo not given), the melting point is 81 to 83 °C. In the case of `Nc1cc(Cl)cc(Cl)c1I` it was 61 to 63 °C; in that of `CN1C(C(=O)Nc2nncs2)=C(O)c2ccc3ccccc3c2S1(=O)=O`, 217 to 219 °C.

The compound `CC(=O)NNc1ccnc2c(NC(=O)c3c(Cl)cccc3Cl)ccc(Cl)c12` registered a melting point of 158 to 161 °C. Turning to `COc1ccc2c(c1)C(=O)N(CCCNCCCN1C(=O)c3cc(OC)ccc3C(C)(C)C1=O)C(=O)C2(C)C`, the melting point was 151 to 152 °C. In the case of `CC1Cc2ccc(Cl)cc2C(c2ccc([N+](=O)[O-])cc2)=NN1C(N)=O` (stereo not given) it was 223 to 234 °C. In the case of `Cc1[nH]c2ccc(CCN(CC(C)C)CC(C)C)cc2c1C(=O)OCc1ccccc1` it was 134 to 135 °C; in that of `Cc1c(Br)csc1-c1nc(-c2c(F)cccc2Cl)nn1C`, 111 to 112 °C. Under `CCCCNC(=O)NS(=O)(=O)c1ccn(C)n1` stands 168 to 169 °C; under `Cn1cnnc1C(c1ccc(C#N)cc1)c1cc2c3c(c1)c(-c1cccc(Cl)c1)cc(=O)n3CC2` (stereo not given), 174 °C; under `Cc1sc2nc(-c3ccccc3)c(-c3ccc(S(C)(=O)=O)cc3)n2c1C`, 193 to 194 °C.

In turn, `Cc1ccc(C(=O)C2=C(O)C(=O)N(c3ccc(C(C)C)nn3)C2c2ccc(C(C)C)cc2)cc1` (stereo not given) came in with a melting point of 269 to 270 °C. In the case of `O=C(Nc1ccccn1)c1c(C(F)(F)F)nc2c(C(F)(F)F)cccc2c1O` it was 236 °C. For the compound `Cc1oc(-c2ccccc2)nc1COc1ccc(CON=C(CCCCC(=O)O)c2ccccc2)cc1`, the melting point was in the range of 101 to 102 °C. In the case of `Cc1cnoc1-c1ccc2c(c1)c1cc(-c3ccc(Cl)cc3Cl)c(=O)n(C)c1n2C` it was 233 to 234 °C; in that of `CC(C)(C)OC(=O)N1CCC(=O)N1c1ccc2ccccc2n1`, 112 °C.

`O=c1cc(-c2ccoc2)c2ccc(Sc3cc(F)cc(-c4ccccc4)c3)cc2o1` came in with a melting point of 122 to 124 °C. Under `COc1ccc(C(C#N)CNC(=O)C(N)=O)cc1OC1CCCC1` (stereo not given) stands 176 to 177 °C; under `Cn1nc(OC2c3cc(C#N)ccc3OC(C)(C)C2(C)O)ccc1=O` (stereo not given), 197 to 199 °C; under `Cc1nccc2c3ccc(OCc4ccc(F)cc4)cc3n(Cc3ccc(F)cc3)c12`, 175 °C. Under `CCOC(=O)c1sc(Cl)nc1-c1ccc(Cl)cc1` stands 119 to 120 °C; under `COc1ccc(Cc2cc(SC#N)ccc2OC)cn1`, 56 to 58 °C; under `Nc1ccsc1[N+](=O)[O-]`, 159 °C. Under `Cc1cc(SCCSCC(=O)O)ccc1O` stands 86 °C. As for `CC#CC=NNC(=O)c1cc(OC)cc(Oc2cccc(C(F)(F)F)c2)n1`, the melting point lay in the range of 147 to 148 °C. Under `O=C1Nc2ccccc2N2C1CCC2c1cccc(Cl)c1` (stereo not given) stands 210 °C; under `Cc1ccc(C#N)cc1C#N`, 142 to 143 °C; under `N#Cc1c(N)nc2ccccc2c1NCc1ccccc1`, 206 °C.

The compound `CS(=O)(=O)c1ccc(-c2nnc(Cl)cc2-c2ccc(Cl)cc2)cc1` showed a melting point of 190 °C.

`CC(C)Oc1ccccc1C=C(C=O)C(C=O)=Cc1ccccc1OC(C)C` registered a melting point of 109 to 110 °C. In the case of `COC(=O)C1=Cc2cc(-c3ccc(N4CCOCC4)cc3)ccc2N(C(=O)OC)CC1` it was 216 to 220 °C; in that of `ClCc1ccc(Oc2ccc3ccc(Oc4ccc(CCl)cc4)cc3c2)cc1`, 95 to 97 °C. In the case of `COc1cc(OC)c2c(=O)[nH]c(-c3ccc(N4C[C@@H](C)N(C(C)=O)[C@@H](C)C4)cc3)nc2n1` it was 279 to 280 °C. Compound `O=C(O)c1cc2c(Cl)ncnc2s1` displayed a melting point above 265 °C. Under `Cc1c(NC(=O)c2ccc(OC[C@@H]3CCCO3)cc2)ccc2c1cc(CN1CCC(C)(O)CC1)n2C` stands 210 °C; under `COC1=C(C(=O)NNC(=O)Cc2ccc(F)cc2)CN(C(C)C)C1=O`, 157 to 158 °C; under `Nc1c(SC(F)(F)F)c(C=O)nn1-c1c(Cl)cc(C(F)(F)F)cc1Cl`, 140 to 143 °C. Under `Cc1oc(-c2ccccc2)nc1COc1ccc2cc(CC3SC(=O)NC3=O)oc2c1` (stereo not given) stands 179 to 180 °C; under `O=c1c2c(n(-c3ccccc3)c3ncccc13)CCC(O)C2` (stereo not given), 283 to 286 °C.

`O=C(NN=C(c1ccccc1)c1ccncc1)c1cccnc1`: the melting point was determined as 74 °C. Turning to `CC(c1cc2ccccc2s1)N(OCc1ccccc1)C(N)=O` (stereo not given), the melting point came out at 126 °C. On to `CC(C)(c1ccc(-c2nc(Nc3ccc(F)cc3)ncc2C#N)cc1)N1CCCC1`, for which the melting point was 124 °C. Under `CCOC(=O)c1cnn(-c2ccc(OCCC(C)C)c(C#N)c2)c1` stands 125 to 126 °C; under `CSc1cc2c(cn1)c(=O)n(C)c1cc(C)nn21`, above 300 °C. In the case of `CCCN1C(=O)N(c2ccc([N+](=O)[O-])c(C(F)(F)F)c2)C(=O)C1(C)C` it was 102 °C.

As a reminder, the melting point is the temperature of the solid-liquid transition.
